Laboratory results from the NIST ThermoML archive (doi:10.1016/j.fluid.2018.04.012).

Assay: xn = mol fraction of the nth substance listed
Details: Liquid, Vibrating tube method

CC(C)OC(C)C [diisopropyl ether] + CC(C)O
mass density [kg/m3]
Details	x2 = 0.1503	x2 = 0.2979	x2 = 0.4228	x2 = 0.5	x2 = 0.6737	x2 = 0.8483
298.15 K, 100 kPa	725.5	732.6	739.4	743.7	754.9	768
298.15 K, 1000 kPa	726.6	733.6	740.5	744.7	755.8	768.9
298.15 K, 5000 kPa	731.3	738.2	744.8	749	759.9	772.6
298.15 K, 10000 kPa	736.8	743.6	749.9	754	764.7	777.1
298.15 K, 15000 kPa	742.1	748.6	754.6	758.8	769.1	781.3
298.15 K, 20000 kPa	746.8	753.2	759.2	763.2	773.4	785.2
298.15 K, 25000 kPa	751.4	757.6	763.5	767.5	777.4	789
298.15 K, 30000 kPa	755.7	761.9	767.6	771.5	781.2	792.6
298.15 K, 35000 kPa	759.7	765.8	771.5	775.2	784.8	796
298.15 K, 40000 kPa	763.6	769.6	775.2	778.9	788.3	799.3
298.15 K, 45000 kPa	767.4	773.2	778.8	782.4	791.7	802.6
298.15 K, 50000 kPa	770.9	776.7	782.2	785.8	794.9	805.6
298.15 K, 55000 kPa	774.4	780.1	785.5	789	798.1	808.6
298.15 K, 60000 kPa	777.7	783.3	788.7	792.1	801.1	811.5
298.15 K, 65000 kPa	780.9	786.5	791.8	795.2	804	814.3
298.15 K, 70000 kPa	784	789.5	794.8	798.2	806.8	817.1
298.15 K, 80000 kPa	789.9	795.3	800.5	803.8	812.3	822.3
298.15 K, 90000 kPa	795.6	800.8	805.9	809.1	817.5	827.3
298.15 K, 100000 kPa	800.8	806	810.9	814.2	822.4	832
298.15 K, 110000 kPa	805.8	811	815.8	818.9	827.1	836.6
298.15 K, 120000 kPa	810.5	815.6	820.4	823.5	831.5	840.8
298.15 K, 130000 kPa	815.1	820.1	824.8	827.9	835.7	844.9
298.15 K, 140000 kPa	819.5	824.4	829	832.1	839.8	848.9
313.15 K, 100 kPa	709.6	716.9	724	728.5	740.2	754
313.15 K, 1000 kPa	710.8	718.1	725.1	729.6	741.3	755
313.15 K, 5000 kPa	716.3	723.3	730	734.4	745.9	759.2
313.15 K, 10000 kPa	722.4	729.3	735.7	740.1	751.1	764.1
313.15 K, 15000 kPa	728.1	734.8	741	745.3	756	768.7
313.15 K, 20000 kPa	733.4	739.9	746	750.2	760.7	773
313.15 K, 25000 kPa	738.2	744.6	750.7	754.6	764.8	776.9
313.15 K, 30000 kPa	743.1	749.4	755.1	759.2	769.2	781
313.15 K, 35000 kPa	747.6	753.6	759.3	763.3	773.1	784.7
313.15 K, 40000 kPa	751.7	757.7	763.4	767.2	776.8	788.2
313.15 K, 45000 kPa	755.7	761.6	767.2	770.9	780.4	791.7
313.15 K, 50000 kPa	759.5	765.4	770.9	774.5	783.9	794.9
313.15 K, 55000 kPa	763.3	769	774.4	778.1	787.3	798.1
313.15 K, 60000 kPa	766.8	772.5	777.8	781.4	790.5	801.2
313.15 K, 65000 kPa	770.2	775.8	781.1	784.7	793.7	804.2
313.15 K, 70000 kPa	773.5	779	784.3	787.7	796.6	807
313.15 K, 80000 kPa	779.6	785.1	790.3	793.6	802.3	812.5
313.15 K, 90000 kPa	785.6	790.9	796	799.3	807.8	817.8
313.15 K, 100000 kPa	791.2	796.3	801.3	804.5	812.9	822.7
313.15 K, 110000 kPa	796.4	801.5	806.4	809.6	817.9	827.5
313.15 K, 120000 kPa	801.3	806.4	811.2	814.4	822.4	832
313.15 K, 130000 kPa	806.2	811.2	815.8	819	826.9	836.3
313.15 K, 140000 kPa	810.9	815.8	820.2	823.5	831.3	840.6
333.15 K, 100 kPa	687.4	694.9	702.4	707	719.4	734.1
333.15 K, 1000 kPa	689	696.4	703.7	708.4	720.7	735.3
333.15 K, 5000 kPa	695.4	702.6	709.5	714.2	726.1	740.2
333.15 K, 10000 kPa	702.7	709.6	716.1	720.7	732.2	745.8
333.15 K, 15000 kPa	709.3	716	722.3	726.8	737.9	751.1
333.15 K, 20000 kPa	715.3	721.8	728	732.3	743.1	755.9
333.15 K, 25000 kPa	720.9	727.3	733.3	737.5	748	760.5
333.15 K, 30000 kPa	726.2	732.4	738.3	742.4	752.6	764.9
333.15 K, 35000 kPa	731.1	737.2	743	747	757	769
333.15 K, 40000 kPa	735.8	741.7	747.4	751.4	761.2	772.9
333.15 K, 45000 kPa	740.2	746	751.7	755.4	765.1	776.6
333.15 K, 50000 kPa	744.4	750.2	755.7	759.4	768.9	780.3
333.15 K, 55000 kPa	748.4	754.1	759.6	763.2	772.6	783.8
333.15 K, 60000 kPa	752.2	757.8	763.3	766.8	776.1	787
333.15 K, 65000 kPa	756	761.5	766.9	770.4	779.4	790.3
333.15 K, 70000 kPa	759.5	765	770.3	773.7	782.7	793.5
333.15 K, 80000 kPa	766.3	771.6	776.8	780.1	788.9	799.3
333.15 K, 90000 kPa	772.6	777.8	782.9	786.2	794.8	805
333.15 K, 100000 kPa	778.5	783.6	788.6	791.8	800.2	810.2
333.15 K, 110000 kPa	784.1	789.2	794	797.3	805.5	815.3
333.15 K, 120000 kPa	789.4	794.4	799.1	802.3	810.4	820.1
333.15 K, 130000 kPa	794.5	799.4	804	–	–	–
